Results from patent publication US20040038947A1, “Method of treating ischemia/reperfusion injury with nitroxyl donors” (The Gov. of the U.S. of America as represented by the Sec. …, priority 2002, published 2004).

Tests used:
Isolated rat hearts [1] = experiment: Ventricular function (contracture, contractile recovery) of isolated rat hearts in 30 min global ischemia / 30 min reperfusion
Protocol: (§1) Isolated heart perfusion. Each animal was anesthetized with 1 g/kg urethane i.p. 10 min after heparin (2,500 U, i.m.) treatment. The chest was opened, and the heart was rapidly excised, placed in ice-cold buffer solution and weighed. Isolated rat hearts were attached to the perfusion apparatus and retrogradely perfused with oxygenated buffer solution at 37° C. The hearts were instrumented as previously described in Rastaldo et al., “P-450 metabolite of arachidonic acid mediates bradykinin-induced negative inotropic effect,” Am. J. Physiol., 280:H2823-H2832 (2001), and Paolocci et al. “cGMP-independent inotropic effects of nitric oxide and peroxynitrite donors: potential role for nitrosylation,” Am. J. Physiol., 279: H1982-H1988 (2000). The flow was maintained constant (9±2 mL/min/g wet weight) to reach a typical coronary perfusion pressure of 85-90 mm Hg. A constant proportion of 10% of the flow rate was applied by means of one of two perfusion pumps (Terumo, Tokyo, Japan) using a 50 mL syringe connected to the aortic cannula. Drug applications (see Experimental Protocols) were performed by switching from the syringe containing buffer alone to the syringe of the other pump containing the drug dissolved in the vehicle at a concentration 10× to the desired final concentration in the heart. A small hole in the left ventricular wall allowed drainage of the thebesian flow, and a polyvinyl-chloride balloon was placed into the left ventricle and connected to an electromanometer for recording of left ventricular pressure (LVP). The hearts were electrically paced at 280-300 bpm and kept in a temperature-controlled chamber (37° C.). Coronary perfusion pressure (CPP) and coronary flow were monitored with a second electromanometer and an electromagnetic flow-probe, respectively, both placed along the perfusion line. Left ventricular pressure, coronary flow and coronary perfusion pressure were recorded using a TEAC R-71 recorder, digitized at 1000 Hz and analyzed off-line with DataQ-Instruments/CODAS software, which allowed quantification of the maximum rate of increase of LVP during systole (dP/dtmax).
(§2) Experimental Protocols. Hearts were allowed to stabilize for 30 min, and baseline parameters were recorded. Typically, coronary flow was adjusted within the first 10 min and kept constant from thereon. After 30 min stabilization, hearts were randomly assigned to one of the treatment groups reported below (n=12 in each group), and then subjected to 30 min global, no-flow ischemia, followed by 30 min of reperfusion (I/R) (see FIG. 1). Pacing of the hearts was stopped at the beginning of the ischemic period and restarted after the third minute of reperfusion.
(§3) Hearts in the control group (Group 1) were perfused with buffer for an additional 29 min after stabilization. Group 2 hearts were exposed to AS (1 μM final concentration) for 19 min followed by a 10 min buffer wash-out period. Group 3 hearts were exposed to DEA/NO (0.5 μM final concentration) administered in the same manner as AS. The concentration of DEA/NO was only one half of that of AS since DEA/NO releases up to two moles of […] per mole of donor molecule. In Group 4, a train of three cycles of 3 min global ischemia followed by 5 min of reperfusion was applied after the stabilization phase, followed by a final 10 min buffer wash-out period (IPC protocol).
Group 5 hearts were exposed to the vehicle (NaOH, final concentration 100 nM) used to dissolve both AS and DEA/NO. […]

Isolated rat hearts [2] = experiment: Pre-ischemic cardiac function of isolated perfused rat hearts (Table 1); details: mean
Protocol: as §1
Hearts were perfused with Krebs-Henseleit solution gassed with 95% O2 and 5% CO2 of the following composition: 17.7 mM sodium bicarbonate, 127 mM NaCl, 5.1 mM KCl, 1.5 mM CaCl2, 1.26 mM MgCl2, 11 mM D-glucose, supplemented with 5 μg/mL lidocaine.
as §2, §3
(§4) Group 5 hearts were exposed to the vehicle (NaOH, final concentration 100 nM) used to dissolve both AS and DEA/NO. To test the influence of switching the myocardial redox state on AS-induced effects, in an additional group of hearts (Group 6) AS was co-infused with N-acetyl-L-cysteine (NAC, 4 mM final concentration). For comparison, hearts were also exposed to NAC alone (Group 7). […]

Isolated rat hearts [3] = experiment: Myocardial injury: infarct area by nitro blue tetrazolium staining; details: AS 1 μM pre-ischemic; p<0.01 vs controls
Protocol: as §2, §3, §4
To corroborate the data relative to myocardial injury, determined by LDH release, infarct areas were also assessed in a blinded fashion. […] The weight of the necrotic and non-necrotic tissues was then determined and the necrotic mass expressed as a percentage of total left ventricular mass.

anesthetized rabbits = details: administered during ischemia and 5 minutes prior to reperfusion; cited from earlier work
[4] = End of stabilization period (baseline of the group, before treatment)
[5] = Post-treatment (pre-ischemic), AS 1 μM, DEA/NO 0.5 μM, NAC 4 mM, 19 min then 10 min wash-out

## [Na+].[Na+].[O-][N+]([O-])=NO [AS, sodium trioxodinitrate]
Isolated rat hearts [1]; 30 min ischemia, 30 min reperfusion, vs pre-ischemic value, controls 38%, AS 1 μM pre-ischemic, FIG. 3A
  Post-ischemic recovery of developed LVP: about 55%
Isolated rat hearts [1]; 30 min ischemia, 30 min reperfusion, vs pre-ischemic value, controls 39%, AS 1 μM pre-ischemic, FIG. 3B
  Post-ischemic recovery of dP/dtmax: 57%
Isolated rat hearts [1]; compared to control, vehicle, NAC and NAC+AS treated hearts (p<0.05), FIG. 2B
  Maximal increment of LVEDP during reperfusion: significantly lower
Isolated rat hearts [2]; [4]
  CPP (coronary perfusion pressure): 89 mmHg
  DP/dtmax: 3145 mmHg/s
  Developed LVP: 99 mmHg
  LVEDP (left ventricular end-diastolic pressure): 9 mmHg
Isolated rat hearts [2]; [5]
  CPP (coronary perfusion pressure): 88 mmHg
  DP/dtmax: 3223 mmHg/s
  Developed LVP: 98 mmHg
  LVEDP (left ventricular end-diastolic pressure): 10 mmHg
Isolated rat hearts [3]
  Infarct size reduction compared to controls: 55%
Anesthetized rabbits
  Effect on myocardial ischemia/reperfusion injury: increased myocardial ischemia/reperfusion injury
